From the NIST ThermoML archive (doi:10.1016/j.fluid.2007.07.059)

Columns and labels:
[1] = Gas, Hot wire method
[2] = xn = mol fraction of the nth substance listed; details: Gas, Hot wire method

CCC(C)C [2-methylbutane]
thermal conductivity [W/m/K], [1]
Details | 342.97 K | 352.61 K | 375 K | 390.75 K
100 kPa | 0.01954 | 0.02064 | 0.02347 | 0.02574
200 kPa | 0.0196 | 0.02071 | 0.02356 | 0.0258
500 kPa | 0.01976 | 0.02093 | 0.02385 | 0.026

CCC(C)C [2-methylbutane] + CCCCC
thermal conductivity [W/m/K], [2]
Details | 100 kPa | 200 kPa | 500 kPa
345.26 K, x1 = 0.6232 | 0.01956 | 0.01963 | 0.01984
345.54 K, x1 = 0.1695 | 0.01924 | 0.01936 | 0.01973
346.28 K, x1 = 0.3293 | 0.01932 | 0.01941 | 0.0197
361.52 K, x1 = 0.3293 | 0.02107 | 0.02119 | 0.02156
362.08 K, x1 = 0.1695 | 0.02122 | 0.02131 | 0.02155
362.43 K, x1 = 0.6232 | 0.02163 | 0.02169 | 0.02187
378.03 K, x1 = 0.6232 | 0.02381 | 0.02382 | 0.02387
378.23 K, x1 = 0.1695 | 0.02312 | 0.02327 | 0.02372
378.57 K, x1 = 0.3293 | 0.02344 | 0.02346 | 0.02351
394.05 K, x1 = 0.6232 | 0.02586 | 0.02591 | 0.02605
394.45 K, x1 = 0.1695 | 0.02554 | 0.02558 | 0.02571
395.51 K, x1 = 0.3293 | 0.02569 | 0.02572 | 0.02578

CCCCC [pentane]
thermal conductivity [W/m/K], [1]
Details | 342.97 K | 366.02 K | 380.86 K | 407.37 K
100 kPa | 0.01889 | 0.02169 | 0.02371 | 0.02719
200 kPa | 0.01895 | 0.02176 | 0.02378 | 0.02728
500 kPa | 0.01915 | 0.02198 | 0.02398 | 0.02754
